ChEMBL document CHEMBL1154198, “Chemical genetics of Plasmodium falciparum” (Nature, 2010)

Legend:
[1] = system: Plasmodium falciparum; experiment: ST_JUDE: Plasmodium falciparum 3D7 EC50 (uM) as measured by SYBR green dye; assay type: functional, organism-based
[2] = system: Plasmodium falciparum; experiment: ST_JUDE: Plasmodium falciparum K1 EC50 (uM) as measured by SYBR green dye; assay type: functional, organism-based

Row | SMILES | EC50 [1] [µM] | EC50 [2] [µM]
1 | CC[n+]1c(/C=C/c2ccc(N(C)C)cc2)sc2cc(NC(C)=O)ccc21 | 3.31 | 4.32
2 | COc1cccc(NC(=O)Cn2c(C)c(C(=O)C(F)(F)F)c3ccccc32)c1 | > 15 | 1.62
3 | CCOC(=O)c1c(CN(CC)CC)n(-c2ccccc2)c2cc(Br)c(O)cc12 | 1.78 | 3.45
4 | CCCCN(CCCC)C(=O)Cn1ccc(=N)c2ccccc21 | > 15 | > 15
5 | COc1cccc(C(=O)NCc2nnc(S)n2-c2ccc(Cl)c(Cl)c2)c1 | 0.0928 | 0.0463
6 | COc1cc(Cl)c(C)cc1NC(=O)C1c2ccccc2C(=O)N(CC(C)C)C1c1cccs1 (configuration not stated) | 0.166 | 0.226
7 | C=CC[n+]1c(C=C2C=CC=CN2C)sc2ccccc21 | 1.52 | 0.879
8 | Cc1onc(-c2ccccc2Cl)c1C(=O)Nc1cc(Cl)ccc1Cl | > 15 | > 15
9 | NNC(=O)CNC(c1ccccc1)c1cc(Br)ccc1NC(=O)c1ccccc1Br (configuration not stated) | 1.89 | 1.65
10 | CC[N+](CC)(CC)CCCOC1CC(C)CCC1C(C)C (configuration not stated) | > 15 | 4.65
11 | O=S(=O)(NCC(c1cccnc1)N1CCN(c2ccc(F)cc2)CC1)c1ccc(Cl)cc1 (configuration not stated) | > 15 | > 15
12 | Cc1cccc(NC(c2ccc(Br)cc2)c2ccc3cccnc3c2O)n1 (configuration not stated) | 1.94 | 3.54
13 | CCOc1ccccc1NC(=S)N1CCN(c2ccc(OC)cc2)C(C)C1 (configuration not stated) | 2.85 | 4.26
14 | CSCCC(=O)N(C)C(Cc1ccc(F)cc1)C1CCN(C(=O)c2cc3ccccc3n2C)CC1 (configuration not stated) | > 15 | > 15
15 | O=C(c1ccco1)N(Cc1cccnc1)c1nc2ccc(F)cc2s1 | > 15 | > 15
16 | C#CCOc1cc(Br)c(C2CC(=O)Nc3ccc4ccccc4c32)cc1OC (configuration not stated) | 3.96 | 2.96
17 | CCN1/C(=C/c2sc3ccccc3[n+]2CCO)C=Cc2cc(OC)ccc21 | 1.07 | 0.571
18 | CN(C)CCCNC(=O)c1cc(-c2ccc(Cl)s2)nc2ccccc12 | > 15 | > 15
19 | COCCn1/c(=N/C(=O)c2nc3ccccc3s2)sc2cc(S(C)(=O)=O)ccc21 | > 15 | > 15
20 | CN1C(=O)/C(=C\c2cccc(Cl)c2)Sc2ccc(C(=O)NC3CCN(Cc4ccccc4)CC3)cc21 | 0.657 | > 15
21 | CCOC(=O)c1c(N)n(-c2ccc(F)cc2)c2nc3ccccc3nc12 | 2.48 | > 15
22 | CC(=O)N(C1=C(N2CCOCC2)C(=O)c2ccccc2C1=O)c1ccc(C(=O)O)cc1 | > 15 | 2.64

Row | SMILES | EC50 [1] [µM] | EC50 [2] [µM]
23 | Cc1cn2c(nc3c2c(=O)n(Cc2ccc(Br)cc2)c(=O)n3C)o1 | > 15 | > 15
24 | COc1ccc(NC2=C(N3CCOCC3)C(=O)c3ccccc3C2=O)cc1 | > 15 | 0.286
25 | CN1CCN(c2nc(Nc3cccc(Cl)c3)c3cnn(-c4ccccc4)c3n2)CC1 | 3.88 | 4.58
26 | O=[N+]([O-])c1ccc(NC(c2ccccn2)c2ccc3cccnc3c2O)cc1 (configuration not stated) | 4.78 | 2.28
27 | Cc1ccc(NC(=O)Nc2cccc(Cl)c2)cc1F | > 15 | > 15
28 | C[n+]1ccccc1-c1nc2ccccc2s1 | > 15 | 5.81
29 | CCCN(CCC)CCCNC(=O)c1ccc2c(Cl)c3c(nc2c1)CCCC3 | > 15 | > 15
30 | CC(C)(C)c1ccc(C(=O)CC(=O)c2cc(Cl)ccc2O)cc1 | > 15 | > 15
31 | CC(C)Cc1ccc(S(=O)(=O)N2c3ccccc3CC2C)cc1 (configuration not stated) | > 15 | > 15
32 | Oc1cccc(/C=C/c2ccc3cccc(O)c3n2)c1 | > 15 | 5.88
33 | CC(=O)NC(c1ccccc1)c1cc(Cl)c2cccnc2c1O (configuration not stated) | > 15 | > 15
34 | O=C1CC(O)(C(F)(F)C(F)(F)OC(F)(F)F)Oc2ccc(Cl)cc21 (configuration not stated) | > 15 | > 15
35 | CCc1ccc(OCC2c3cc(OC)c(OC)cc3CCN2C(=O)COc2ccccc2)cc1 (configuration not stated) | > 15 | > 15
36 | CCN(CC)c1ccc(/C=N\Nc2ncc(F)c(N3CCOCC3)n2)c(O)c1 | 1.53 | 1.7
37 | Cc1ccc(Cn2c(=O)c3ccccc3n3c(CCC(=O)N4CCC(C(N)=O)CC4)nnc23)cc1 | > 15 | > 15
38 | Cc1ccc([N+](=O)[O-])cc1NC(=O)c1cc2ccccc2cc1O | 0.825 | 0.827
39 | COc1ccc(C2(O)C[N+](c3ccc(C)cc3)=C3SCCCN32)c(F)c1 (configuration not stated) | > 15 | > 15
40 | CCCOc1ccc(-c2nonc2NC(=O)c2cccc(OCC)c2)cc1OCCC | > 15 | 0.444
41 | Cc1cccc(-n2c(N)c(C#N)c3nc4ccccc4nc32)c1 | 4.2 | > 15
42 | O=C(C1CCCCC1)N(Cc1cccnc1)c1nc2ccc(F)cc2s1 | > 15 | 3.41
43 | N#Cc1ccc(C(=O)N(Cc2cccnc2)c2nc3c(F)cccc3s2)cc1 | > 15 | > 15
44 | CCc1ccc(S(=O)(=O)/N=C2/C=C(Sc3nc[nH]n3)C(=O)c3ccccc32)cc1 | 4.79 | 6.99

Row | SMILES | EC50 [1] [µM] | EC50 [2] [µM]
45 | Cc1cccc2nc(Cn3c(=O)n(Cc4ccc5c(c4)OCO5)c(=O)c4ccc(C(=O)NC5CCCCC5)cc43)cc(=O)n12 | > 15 | > 15
46 | CC[n+]1cccc2cc(OC)ccc21 | > 15 | > 15
47 | C/C(Cl)=C\C[N+]1(C/C=C(\C)Cl)CCCCC1 | > 15 | > 15
48 | CCc1cc2c(=O)c(-c3ccc(OC(C)C)cc3)coc2cc1OC(C)=O | > 15 | 4.25
49 | CCOCC(=O)Nc1ccc(S(=O)(=O)N2CCC(c3nc4ccccc4[nH]3)CC2)cc1 | > 15 | > 15
50 | Cc1cc(C)c[n+](C(C)C(=O)c2ccc(-c3ccccc3)cc2)c1 (configuration not stated) | 2.86 | 2.53
51 | COc1ccc(C2C(C(=O)Nc3cnc4ccccc4c3)c3ccccc3C(=O)N2C2CCCCC2)cc1 (configuration not stated) | 1.63 | 3.37
52 | COC(=O)c1cc(NS(=O)(=O)c2ccccc2[N+](=O)[O-])cc(C(=O)OC)c1 | > 15 | > 15
53 | COc1cc(NC(=O)N2CCn3cccc3C2c2ccc(F)cc2)cc(OC)c1OC (configuration not stated) | 4.15 | 3.75
54 | COc1cc(CNCCc2ccc(Cl)cc2)cc(OC)c1O | 6.89 | > 15
55 | Cc1ccc(-c2nc(-c3ccc(Cl)cc3)no2)cc1 | > 15 | > 15
56 | CC(Sc1ccc(Cl)cc1)C(=O)Nc1ccc(Br)cc1F (configuration not stated) | > 15 | > 15
57 | CCOC(=O)c1cnc2c(C)cccc2c1NCCCN1CCOCC1 | 0.647 | 1.43
58 | CCOc1cccc2sc(N(Cc3cccnc3)C(=O)c3ccccc3[N+](=O)[O-])nc12 | 5.31 | > 15
59 | CCN(CC)CCNC(=O)c1ccc2c(c1)sc1nc(-c3ccc(C)cc3)cn12 | 1.65 | 4.83
60 | Cc1ccccc1CN1C(=O)CSc2ccc(C(=O)NCCC(C)C)cc21 | > 15 | > 15
61 | O=[N+]([O-])c1ccc(NC(=S)Nc2cc(C(F)(F)F)cc(C(F)(F)F)c2)cc1 | 1.64 | 0.631
62 | Cc1cccc2sc(N(Cc3cccnc3)C(=O)c3ccc(C#N)cc3)nc12 | > 15 | 3.08
63 | COC(=O)c1c(N)n(-c2ccc(F)cc2F)c2nc3ccccc3nc12 | 0.853 | 3.98
64 | CCCCNc1nc(Nc2cccc(C)c2)c2cnn(-c3ccccc3)c2n1 | > 15 | 7.9
65 | CC(C)(O)C#Cc1ccc([C@@H]2C[C@H]3CN(Cc4cccc(Cl)c4)C(=O)[C@]34CCCN24)cc1 | 4.64 | 5.79
66 | COc1ccccc1Cn1ccnc1SCC(=O)Nc1cc(C)ccc1C | 1.97 | > 15

Row | SMILES | EC50 [1] [µM] | EC50 [2] [µM]
67 | COc1cc(C(NC(=O)CCl)NC(=O)CCl)ccc1OCC(C)C | 5.66 | 3.67
68 | Cc1c(Cl)c(C(F)(F)F)nn1CC(=O)Nc1cccc(C(F)(F)F)c1 | > 15 | 4.43
69 | CCCCCCC(O)(c1ccc(F)cc1)C(CN1CCOCC1)c1ccccc1 (configuration not stated) | 3.18 | 2.19
70 | C=CCN1C(=O)c2[nH]nc(-c3c(C)cc(C)cc3O)c2C1c1cccc(OC)c1 (configuration not stated) | 2.42 | 1.42
71 | O=C(COc1ccc(Cl)cc1)N1CCN(Cc2cccc([N+](=O)[O-])c2)CC1 | > 15 | > 15
72 | CCOc1cc(C2C3=C(O)CC(c4ccc(OC)cc4)CC3=NC(C)=C2C(=O)OC)ccc1O (configuration not stated) | > 15 | 5.36
73 | O=C(CSc1ccccc1[N+](=O)[O-])Nc1cccc(Br)c1 | > 15 | > 15
74 | COc1ccc(-c2nn(C)c3sc(C(=O)Nc4cccc(C(F)(F)F)c4)cc23)cc1OC | > 15 | > 15
75 | Cc1ccc(-c2n(C)c3ccccc3[n+]2C)cc1 | 11.9 | > 15
76 | CCc1n(CC(O)COc2ccccc2OC)c2ccccc2[n+]1CC (configuration not stated) | > 15 | > 15
77 | CCCCCOc1ccc(NC2=C(N3CCCCC3)C(=O)c3ccccc3C2=O)cc1 | 0.0689 | 0.057
78 | CCCCN(CCCC)CC1OCc2ccccc2CO1 | > 15 | > 15
79 | CC(=O)c1ccc(Oc2c(F)c(F)nc(F)c2F)cc1 | > 15 | > 15
80 | COc1ccc(N2C(=O)/C(=C/Nc3ccc(F)cc3)c3ccccc3C2=O)cc1 | > 15 | > 15
81 | CCC(=O)NC(c1ccccc1Cl)c1ccc2cccnc2c1O (configuration not stated) | 2.19 | 2.91
82 | C=CCN(CC=C)CCN1CCN(C(=O)Nc2cc(C(F)(F)F)cc(C(F)(F)F)c2)CC1 | 0.711 | 0.535
83 | CCCCCn1c(=O)c2c(nc3n(-c4ccccc4OCC)c(C)cn23)n(C)c1=O | > 15 | > 15
84 | C=CCN1C(=O)c2[nH]nc(-c3c(C)cc(C)cc3O)c2C1c1ccc(OCC)cc1 (configuration not stated) | 2.74 | 1.72
85 | CC1(C)CC(=O)C2=C(C1)OC(N)=C(C#N)C2c1ccc(F)cc1F (configuration not stated) | > 15 | > 15
86 | CCCCCCn1c(N)c(C(=O)OC)c2nc3ccccc3nc21 | > 15 | > 15
